Experimental findings from patent US9458095B2, “Oligo-benzamide compounds and their use in treating cancers” (The Board of Regents of the University of Texas System, priority 2011, dated 2016) are described below.

Structures are written as SMILES.

Type in all cases: cell-based
What all share (conditions): 100 nM peptidomimetic, 48 h

The target of experiment [1] is T1, ARΔ1 (Homo sapiens, UniProt P10275).
T1 construct: expressed in transfected cells; host or cells: PC-3 cells
T1 sequence (P10275 540-920 limits assumed): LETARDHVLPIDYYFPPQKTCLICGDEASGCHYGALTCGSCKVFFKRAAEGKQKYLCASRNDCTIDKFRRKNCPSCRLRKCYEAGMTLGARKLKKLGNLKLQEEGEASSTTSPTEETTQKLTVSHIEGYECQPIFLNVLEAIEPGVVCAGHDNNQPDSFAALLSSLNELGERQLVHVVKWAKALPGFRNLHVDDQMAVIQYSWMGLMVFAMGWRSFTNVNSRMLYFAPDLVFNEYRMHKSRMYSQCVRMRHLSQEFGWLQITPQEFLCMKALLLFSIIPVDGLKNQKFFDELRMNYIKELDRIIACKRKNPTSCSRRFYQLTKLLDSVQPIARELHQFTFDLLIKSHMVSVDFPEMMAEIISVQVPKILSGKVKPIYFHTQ
The experiment can be described thus: ARE-luciferase reporter in PC-3 cells expressing ARΔ1. The method, then:
FIGS. 2A-D. Oligobenzamide control of PC3 cell proliferation. (FIG. 2A) Structure of AR deletion mutants with numbered exons (FIG. 2B) Effect of D2 and T6 on basal (AI) and AD transcription. PC-3 cells were transiently transfected with ARE-luciferase along with plasmids expressing ARwt (FIG. 2B), ARv7 (FIG. 2C) or ARΔ1 (FIG. 2D). Cells were maintained for 48 h either without (EtOH) or with (1 nM DHT) and in the presence of 100 nM of peptidomimetic or volume equivalent of vehicle (DMSO) control. Luciferase assay results are shown. Data is normalized to the basal level of expression with AR wt in PC3 cells.
Since the WxxLF motif is also present in the truncated forms of the androgen receptor, the inventors then evaluated the ability of the peptidomimetics to block ARv7-driven transcription from a minimal ARE luciferase reporter. […] These findings were confirmed with a synthetic AR with point mutations in the WxxLF motif (data not shown).

Experiment [2] addresses T2, wtAR (Homo sapiens, UniProt P10275).
T2 construct: expressed in transfected cells; host or cells: PC-3 cells (A3); M12 cells (A8)
T2 sequence (P10275 1-920): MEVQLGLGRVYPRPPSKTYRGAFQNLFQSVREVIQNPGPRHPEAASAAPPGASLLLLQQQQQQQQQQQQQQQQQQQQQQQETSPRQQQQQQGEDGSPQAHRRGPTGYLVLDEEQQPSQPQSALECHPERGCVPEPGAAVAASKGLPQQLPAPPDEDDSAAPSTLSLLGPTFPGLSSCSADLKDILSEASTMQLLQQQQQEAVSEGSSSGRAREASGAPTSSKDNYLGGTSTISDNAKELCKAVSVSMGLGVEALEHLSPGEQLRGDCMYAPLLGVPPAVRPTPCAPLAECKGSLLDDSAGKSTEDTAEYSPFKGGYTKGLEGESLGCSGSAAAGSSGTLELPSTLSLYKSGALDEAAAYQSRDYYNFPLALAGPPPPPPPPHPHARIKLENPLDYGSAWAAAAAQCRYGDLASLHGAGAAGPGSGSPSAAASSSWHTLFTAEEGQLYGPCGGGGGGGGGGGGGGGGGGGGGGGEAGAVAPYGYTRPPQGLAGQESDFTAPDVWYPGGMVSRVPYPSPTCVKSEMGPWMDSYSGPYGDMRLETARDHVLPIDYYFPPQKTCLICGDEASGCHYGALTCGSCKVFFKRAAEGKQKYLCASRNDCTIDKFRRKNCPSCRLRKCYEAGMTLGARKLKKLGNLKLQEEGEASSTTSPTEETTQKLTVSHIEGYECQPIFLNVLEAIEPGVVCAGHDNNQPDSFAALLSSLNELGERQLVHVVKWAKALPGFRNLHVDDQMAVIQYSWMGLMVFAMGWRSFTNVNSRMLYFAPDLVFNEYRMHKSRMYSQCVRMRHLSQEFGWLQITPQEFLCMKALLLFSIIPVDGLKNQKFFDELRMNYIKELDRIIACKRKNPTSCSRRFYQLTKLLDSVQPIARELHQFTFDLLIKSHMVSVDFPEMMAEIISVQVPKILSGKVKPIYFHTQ
The experiment can be described thus: Rat probasin-luciferase reporter in M12 cells with ARwt. The method, then:
(§1) FIG. 5. Effect of T6 on basal level of ARE expression in M12 cells. M12 cells were transiently transfected with the rat probasin-luciferase reporter and either ARwt or ARv7. Cells were maintained for 48 h without (EtOH) and in the presence of 100 nM of peptidomimetic or volume equivalent of vehicle (DMSO) control or 10 μM of MDV3100. Luciferase assay results are shown.
In general terms: In a reporter assay the amount or activity of a reporter protein is the signal.

Experiment [3] deals with T3, ARv7 (Homo sapiens, UniProt P10275).
T3 sequence (P10275 1-644 isoform P10275-3): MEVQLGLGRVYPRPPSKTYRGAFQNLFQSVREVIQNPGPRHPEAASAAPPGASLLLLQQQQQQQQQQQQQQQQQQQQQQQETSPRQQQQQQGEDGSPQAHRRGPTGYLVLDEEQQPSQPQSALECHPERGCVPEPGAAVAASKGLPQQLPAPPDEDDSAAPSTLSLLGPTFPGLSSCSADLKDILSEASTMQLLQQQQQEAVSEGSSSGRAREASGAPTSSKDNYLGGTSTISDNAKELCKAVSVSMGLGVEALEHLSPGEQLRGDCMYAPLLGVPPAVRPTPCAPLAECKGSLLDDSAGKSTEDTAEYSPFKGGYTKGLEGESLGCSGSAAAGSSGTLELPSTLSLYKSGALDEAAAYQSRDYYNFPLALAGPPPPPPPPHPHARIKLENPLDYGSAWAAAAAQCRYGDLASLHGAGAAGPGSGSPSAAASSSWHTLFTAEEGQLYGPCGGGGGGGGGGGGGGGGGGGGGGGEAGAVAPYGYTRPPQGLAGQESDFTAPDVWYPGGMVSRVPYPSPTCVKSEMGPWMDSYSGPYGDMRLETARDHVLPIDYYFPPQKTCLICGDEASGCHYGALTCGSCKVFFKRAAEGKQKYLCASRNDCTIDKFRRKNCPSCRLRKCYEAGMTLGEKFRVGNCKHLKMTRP
The experiment can be described thus: Rat probasin-luciferase reporter in M12 cells with ARv7. Also noted: expressed in transfected cells; host or cells: M12 cells (A9). The method, then: as §1

Turning to `CC(C)COc1cc(C(N)=O)ccc1NC(=O)c1ccc(NC(=O)c2ccc([N+](=O)[O-])c(OCCc3ccc4ccccc4c3)c2)c(OCC(C)C)c1` [T6], the ARΔ1-mediated transcription entry in experiment [1] is “not able to block”. The “expression of rat probasin reporter in M12 cells driven by wtAR” value in experiment [2] is recorded as “able to independently knock down”. Moreover, the “expression of rat probasin reporter in M12 cells driven by ARv7” value in experiment [3] is “able to independently knock down”.
